The results in this text go back to ChEMBL document CHEMBL3044642, “Antimycobacterial activity of fractions and isolated compounds from Vetiveria zizanioides” (2012).

Assay type in all cases: functional
Assay [1] has as its system Mycolicibacterium smegmatis. The experiment in a line: Antimycobacterial activity against lomofloxacin-resistant Mycobacterium smegmatis Lom R5 after 24 hr by two-fold serial micro broth dilution method. The following applies: Lom R5, 24 h. Background: In broth dilution the organism is exposed to a series of concentrations in liquid medium.
In assay [2] the test system is Mycolicibacterium smegmatis. Nature of the assay: Antimycobacterial activity against ciprofloxacin,lomofloxacin and norflaxacin-resistant Mycobacterium smegmatis CSC-101 after 24 hr by two-fold serial micro broth dilution method. The note with it: CSC-101, 24 h.
The test system of assay [3] is Mycolicibacterium smegmatis. The experiment in a line: Antimycobacterial activity against Mycobacterium smegmatis str. MC2 155 after 24 hr by two-fold serial micro broth dilution method. The following applies: str. MC2 155, 24 h.
The test system of assay [4] is Mycolicibacterium smegmatis. The experiment in a line: Antimycobacterial activity against rifampicin,amphiciline and kanamycin-resistant Mycobacterium smegmatis MDR-40 after 24 hr by two-fold serial micro broth dilution method. The following applies: MDR-40, 24 h.
The subject of assay [5] is Mycolicibacterium smegmatis. The experiment in a line: Antimycobacterial activity against rifampicin,tetracycline and chloramphenicol-resistant Mycobacterium smegmatis MDR-R after 24 hr by two-fold serial micro broth dilution method.
Assay [6] relates to Mycolicibacterium smegmatis. The experiment in a line: Antimycobacterial activity against quinolones and ciprofloxacin-resistant Mycobacterium smegmatis MDRQ after 24 hr by two-fold serial micro broth dilution method.

In brackets after ≈: the same amount, converted by molar mass.

As to `CCn1cc(C(=O)O)c(=O)c2ccc(C)nc21` [NALIDIXIC ACID], the MIC worked out at 25 µg/mL (≈ 108 µM) in assay [1]; 6.25 µg/mL (≈ 26.9 µM) in assay [2]; 0.78 µg/mL (≈ 3.36 µM) in assay [3]; 50 µg/mL (≈ 215 µM) in assay [4]; 50 µg/mL (≈ 215 µM) in assay [5]; 50 µg/mL (≈ 215 µM) in assay [6].

For the molecule `CCn1cc(C(=O)O)c(=O)c2cc(F)c(N3CCNC(C)C3)c(F)c21` (stereo not given) [LOMEFLOXACIN], the MIC in assay [1] is over 50 µg/mL; in assay [2], under 1 µg/mL; in assay [3], 0.78 µg/mL (≈ 2.22 µM); in assay [4], 2.5 µg/mL (≈ 7.12 µM); in assay [5] it was 10 µg/mL (≈ 28.5 µM); in assay [6] it was over 50 µg/mL.

Regarding `O=C(O)c1cn(C2CC2)c2cc(N3CCNCC3)c(F)cc2c1=O` [CIPROFLOXACIN], the minimal inhibitory concentration (MIC) in assay [1] is 25 µg/mL (≈ 75.4 µM); in assay [2] it was 3.12 µg/mL (≈ 9.43 µM); in assay [3], 0.78 µg/mL (≈ 2.35 µM); in assay [4], over 25 µg/mL; in assay [5], 3.12 µg/mL (≈ 9.43 µM); in assay [6], 25 µg/mL (≈ 75.4 µM).

In the case of `CCCCC#CCCCC#CCCCCO`, the MIC in assay [1] was over 250 µg/mL; in assay [2], 62.5 µg/mL (≈ 284 µM); in assay [3], 125 µg/mL (≈ 567 µM); in assay [4] it was 31.2 µg/mL (≈ 142 µM); in assay [5], 31.2 µg/mL (≈ 142 µM); in assay [6], 250 µg/mL (≈ 1130 µM).

`CC1(C)CCC[C@@]2(C)C(CO)[C@H]3CC[C@H]2C3C1` (stereo not given in full) [HYDROXY JUNEPENE]: the MIC in assay [1] is over 250 µg/mL; in assay [2], 125 µg/mL (≈ 529 µM); in assay [3], 62.5 µg/mL (≈ 264 µM); in assay [4] it was 31.2 µg/mL (≈ 132 µM); in assay [5] it was 62.5 µg/mL (≈ 264 µM); in assay [6] it was over 250 µg/mL.

Broadly, the MIC is the lowest concentration that inhibits growth of the organism. A low value points to greater potency.
